Laboratory results as given in patent US20250314869A1, “SYSTEMS AND METHODS FOR HIGH THROUGHPUT SINGLE MOLECULE TRACKING IN LIVING CELLS” (EIKON THERAPEUTICS, INC., priority 2022, published 2025).
Entries after “also recorded” stand apart in the source; their conditions may differ. Read-outs that look alike come from different tables or passages of the source.

What was measured:
Estrogen Receptor (ER) [1] = biological target: T1, Estrogen Receptor (ER) (Homo sapiens, UniProt P03372); experiment: htSMT of Halo-ER in U2OS cells (fbound, Dfree); assay type: cell-based; settings: for change in ER fbound: follow-up of selected compounds
T1 construct: expressed in transfected cells
T1 sequence (P03372 1-595): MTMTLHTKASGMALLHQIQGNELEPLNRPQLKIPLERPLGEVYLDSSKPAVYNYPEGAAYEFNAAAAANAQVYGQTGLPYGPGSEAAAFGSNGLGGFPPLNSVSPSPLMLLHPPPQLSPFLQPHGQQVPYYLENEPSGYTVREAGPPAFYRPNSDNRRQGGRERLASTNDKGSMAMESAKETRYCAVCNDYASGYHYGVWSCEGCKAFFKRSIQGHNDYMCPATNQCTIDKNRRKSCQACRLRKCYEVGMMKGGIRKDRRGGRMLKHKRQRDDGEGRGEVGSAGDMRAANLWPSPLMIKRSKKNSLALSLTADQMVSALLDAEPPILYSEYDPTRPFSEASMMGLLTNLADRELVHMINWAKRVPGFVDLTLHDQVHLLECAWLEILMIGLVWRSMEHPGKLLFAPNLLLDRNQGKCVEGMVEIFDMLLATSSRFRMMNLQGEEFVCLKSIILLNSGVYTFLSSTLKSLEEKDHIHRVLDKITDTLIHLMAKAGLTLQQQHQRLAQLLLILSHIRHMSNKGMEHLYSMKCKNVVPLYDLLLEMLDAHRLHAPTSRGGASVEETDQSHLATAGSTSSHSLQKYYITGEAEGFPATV

androgen receptor (AR) = androgen receptor (AR) (Homo sapiens, UniProt P10275)
Estrogen Receptor (ER) [2] = biological target: T1, Estrogen Receptor (ER); experiment: residence time imaging of ER-Halo (track length); assay type: cell-based; settings: versus DMSO, 100 nM HSP90 inhibition
Estrogen Receptor (ER) [3] = biological target: T1, Estrogen Receptor (ER); experiment: kinetic SMT (kSMT) of ER after compound addition; assay type: cell-based; settings: 100 nM compound
ER = ER (Homo sapiens, UniProt P03372); experiment: western blot of ER after 24 hours treatment; assay type: cell-based; settings: 24 hours prior to lysis; MCF7, T47d, U2OS ER-HaloTag
Description: Cells were grown in the same conditions as described previously. […] Cells are lysed in 200 μL 1× Cell Lysis Buffer (catalogue number 9803, Cell Signaling). Protein lysate concentration is then determined using BCA protein assay kit (Catalog number 23225, Pierce™ BCA Protein Assay Kit) following manufacturer instructions. Capillary Western Immunoassay were performed using Jess Protein Simple following manufacturer's instruction (protein simple, USA). Levels of αER (1:100, RM-9101) were normalized to loading control β-tubulin (1:100, NC0244815 LI-COR 92642213, Thermo Fisher). The peaks were analyzed with the Compass software (Protein Simple, USA).

[4] = biological target: T2, glucocorticoid receptor (GR) (Homo sapiens, UniProt P04150); experiment: htSMT of Halo-GR in U2OS cells; assay type: cell-based; settings: 1 μM antagonist, singly or with cognate agonist
T2 construct: Because U2OS cells express GR endogenously; endogenous in cells; host or cells: U2OS, CRISPR/Cas9 knock-in at the endogenous NR3C1 locus
T2 sequence (P04150 1-777): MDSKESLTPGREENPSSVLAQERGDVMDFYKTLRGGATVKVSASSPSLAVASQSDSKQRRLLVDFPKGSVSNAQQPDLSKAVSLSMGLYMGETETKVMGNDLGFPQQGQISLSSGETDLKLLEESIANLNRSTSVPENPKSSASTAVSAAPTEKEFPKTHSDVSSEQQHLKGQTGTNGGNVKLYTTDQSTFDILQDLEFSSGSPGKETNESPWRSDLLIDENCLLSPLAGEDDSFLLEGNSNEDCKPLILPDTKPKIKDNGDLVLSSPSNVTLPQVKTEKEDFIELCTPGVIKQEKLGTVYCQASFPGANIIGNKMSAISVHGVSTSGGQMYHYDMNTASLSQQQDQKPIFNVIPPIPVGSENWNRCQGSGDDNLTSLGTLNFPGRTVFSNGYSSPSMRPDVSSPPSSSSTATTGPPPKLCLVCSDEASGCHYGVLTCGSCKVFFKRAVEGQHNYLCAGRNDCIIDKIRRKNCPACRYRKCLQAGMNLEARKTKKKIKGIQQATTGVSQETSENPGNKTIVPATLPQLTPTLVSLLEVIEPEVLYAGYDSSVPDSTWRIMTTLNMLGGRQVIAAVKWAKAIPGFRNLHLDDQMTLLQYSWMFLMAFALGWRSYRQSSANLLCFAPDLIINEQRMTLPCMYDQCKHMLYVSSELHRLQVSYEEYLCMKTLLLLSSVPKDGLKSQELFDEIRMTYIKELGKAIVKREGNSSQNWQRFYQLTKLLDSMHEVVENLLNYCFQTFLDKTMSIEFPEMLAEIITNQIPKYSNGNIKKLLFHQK
Source text: Where appropriate, compounds were serially diluted in an Echo Qualified 384-Well Low Dead Volume Source Microplate (0018544, Beckman Coulter) to generate dose-titration source material.

Chain of androgen receptor (AR) (P10275 whole entry): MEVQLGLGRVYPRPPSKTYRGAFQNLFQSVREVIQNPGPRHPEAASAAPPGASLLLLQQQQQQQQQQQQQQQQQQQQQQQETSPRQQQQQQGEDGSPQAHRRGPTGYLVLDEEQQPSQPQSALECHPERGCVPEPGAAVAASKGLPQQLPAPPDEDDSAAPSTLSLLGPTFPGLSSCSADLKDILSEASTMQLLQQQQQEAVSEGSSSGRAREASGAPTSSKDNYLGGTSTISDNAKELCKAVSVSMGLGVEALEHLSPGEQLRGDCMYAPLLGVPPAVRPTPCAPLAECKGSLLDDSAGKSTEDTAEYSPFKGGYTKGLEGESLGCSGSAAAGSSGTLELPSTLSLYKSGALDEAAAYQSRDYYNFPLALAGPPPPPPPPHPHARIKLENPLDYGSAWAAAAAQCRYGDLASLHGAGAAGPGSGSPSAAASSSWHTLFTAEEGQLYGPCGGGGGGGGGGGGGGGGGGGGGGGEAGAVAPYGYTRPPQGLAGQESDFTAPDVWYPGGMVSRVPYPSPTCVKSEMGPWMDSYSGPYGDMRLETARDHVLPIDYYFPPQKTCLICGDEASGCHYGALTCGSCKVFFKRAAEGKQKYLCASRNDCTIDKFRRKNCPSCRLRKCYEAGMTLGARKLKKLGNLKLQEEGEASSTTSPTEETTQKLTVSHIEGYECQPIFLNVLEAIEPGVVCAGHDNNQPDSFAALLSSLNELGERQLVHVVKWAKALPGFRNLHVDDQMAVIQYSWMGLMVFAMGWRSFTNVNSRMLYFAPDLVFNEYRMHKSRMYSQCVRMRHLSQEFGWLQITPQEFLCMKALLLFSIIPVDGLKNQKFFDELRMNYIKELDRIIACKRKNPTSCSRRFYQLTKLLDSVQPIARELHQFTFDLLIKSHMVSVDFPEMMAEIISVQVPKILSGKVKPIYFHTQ

Row | Compound | decrease in total number of long binding events (Estrogen Receptor (ER) [2]) | time at which overall effect on fbound reached a plateau (Estrogen Receptor (ER) [3]) | change in ER fbound (Estrogen Receptor (ER) [1]) | other results
1 | 4-hydroxytamoxifen | – | – | – | change in ER fbound in bioactive screen (Estrogen Receptor (ER) [1]): significantly increased fbound; maximal increase in ER fbound (Estrogen Receptor (ER) [1]): lower maximal increases in fbound
2 | CC(O)c1cc(C(=O)N[C@@H](C)Cn2ccc(-c3ccc(C#N)c(Cl)c3)n2)[nH]n1 (stereo partly drawn) [Darolutamide] | – | – | – | AR fbound / chromatin binding (androgen receptor (AR)): decrease in chromatin binding
3 | COc1cccc(-c2cc(F)ccc2[C@H]2Cc3nc(N)nc(C)c3C(=O)N2)n1 [HSP990] | two | plateau after an hour | increase in fbound | –
4 | C[C@]12CC[C@@H]3c4ccc(O)cc4C[C@@H](CCCCCCCCC[S+]([O-])CCCC(F)(F)C(F)(F)F)[C@H]3[C@@H]1CC[C@@H]2O (stereo partly drawn) [fulvestrant] | – | – | – | ER degradation (western blot) (ER): degradation of ER; change in ER fbound in bioactive screen (Estrogen Receptor (ER) [1]; 1 μM compound versus DMSO): increase in fbound; also recorded: significantly increased fbound
5 | CN(C)c1ccc(C(c2ccc(N(C)C)cc2)c2cc([N+](=O)[O-])ccc2Cl)cc1 [AL082D06] | – | – | – | GR chromatin binding (fbound) [4]: decrease in chromatin binding
6 | CC(C)c1cc(-c2n[nH]c(=O)n2-c2ccc3c(ccn3C)c2)c(O)cc1O [ganetespib] | four | plateau after an hour | increase in fbound | –
